Source: PMC7167818, “Addition of K22 Converts Spider Venom Peptide Pme2a from an Activator to an Inhibitor of NaV1.7” (Biomedicines, 2020)
Entries after “also recorded” stand apart in the source; their conditions may differ. Bridge positions count the residues as written; N and C are the ends. Peptide text beside a SMILES is read from it.

Tests used:
rTRPV1 = biological target: T1, rTRPV1 (Rattus norvegicus, UniProt O35433); assay: Calcium responses in TRPV1-HEK cells (FLIPR); format: cell-based
T1 construct: expressed in transfected cells
Experimental: HEK293 cells stably expressing rat transient receptor potential vanilloid 1 (TRPV1) were cultured in Dulbecco’s Modified Eagle Medium (DMEM) containing 10% FBS under selection with hygromycin B (100 μg/mL), generated as previously described [16]. Cells were grown in an incubator at 37 °C with 5% CO2 and passaged every 3–4 days (at 70%–80% confluency) using TrypLE Express (Thermo Fisher Scientific, Scoresby, VIC, Australia).
HEK cells stably expressing rTRPV1 were plated 48 h before the assay on 384-well black-walled imaging plates coated with poly D-lysine (ViewPlate-384, Perkin Elmer, Victoria, Australia) at a density of 10,000–15,000 cells/well and loaded with Calcium 4 no-wash dye (Molecular Devices) diluted in PSS and incubated for 30 min at 37 °C. […] Changes in fluorescence were assessed using the FLIPR^TETRA (excitation 470–495 nm, emission 515–575 nm) every 1 s for 300 s after the addition of compounds. Fluorescence responses were quantified by the maximum increase in fluorescence calculated using ScreenWorks 3.2.0.14.
Data were plotted and analysed using GraphPad Prism, version 8.2.0. For concentration–response curves, a four-parameter Hill equation with variable Hill coefficient was fitted to the data. Data are presented as the mean ± SEM.

hNaV1.7/β1 [1] = biological target: T2, hNaV1.7/β1 (Homo sapiens, UniProt Q15858); assay: Time constant of fast inactivation (τ) at hNaV1.7 (patch-clamp); format: cell-based; conditions: holding −90 mV, 50 ms pulse to −20 mV, n = 4 cells per data point
Experimental: (§1) Human Embryonic Kidney (HEK) 293 cells stably expressing human NaV1.7/β1 (SB Drug Discovery, Glasgow, UK) were cultured in Minimum Essential Medium (MEM) supplemented with 10% fetal bovine serum (FBS), 2 mM L-glutamine, and the selection antibiotics G-418 (0.6 mg/mL) and blasticidin (4 μg/mL), as recommended by the manufacturer. Chinese Hamster Ovary (CHO) cells stably expressing human NaV1.8/β3 in a tetracycline-inducible system (ChanTest, Cleveland, OH, USA) were cultured in MEM supplemented with 10% FBS and 2 mM L-glutamine. Expression of hNaV1.8 was induced by the addition of tetracycline (1 μg/mL) for 48–72 h prior to assays. HEK293 cells stably expressing rat transient receptor potential vanilloid 1 (TRPV1) were cultured in Dulbecco’s Modified Eagle Medium (DMEM) containing 10% FBS under selection with hygromycin B (100 μg/mL), generated as previously described. Cells were grown in an incubator at 37 °C with 5% CO2 and passaged every 3–4 days (at 70%–80% confluency) using TrypLE Express (Thermo Fisher Scientific, Scoresby, VIC, Australia).
(§2) Whole-cell patch-clamp experiments in NaV1.7-HEK cells and NaV1.8-CHO cells were performed on a QPatch-16 automated electrophysiology platform (Sophion Bioscience, Ballerup, Denmark) as previously described. The extracellular solution contained in mM: NaCl 140, KCl 4, CaCl2 2, MgCl2 1, HEPES 10 and glucose 10; pH 7.4; osmolarity 305 mOsm. The intracellular solution contained in mM: CsF 140, EGTA/CsOH 1/5, HEPES 10 and NaCl 10; pH 7.3 with CsOH; osmolarity 320 mOsm. Concentration–response curves were acquired using a holding potential of −90 mV and a 50 ms pulse to −20 mV (for NaV1.7) or +10 mV (for NaV1.8) every 20 s (0.05 Hz). Peptides were diluted in extracellular solution with 0.1% BSA and each peptide concentration was incubated for 5 min. Peak current was normalized to buffer control. The time constant of fast inactivation (τ) was computed by fitting the current decay traces with a single exponential function using the QPatch Assay Software 5.6 (Sophion). […]
(§3) Data were plotted and analysed using GraphPad Prism, version 8.2.0. […]

hNaV1.7/β1 [2] = biological target: T2, hNaV1.7/β1; assay: Whole-cell automated patch-clamp, peak current at hNaV1.7; format: cell-based
Experimental: as §1, §2, §3

hNaV1.8/β3 = assay: Whole-cell automated patch-clamp, peak current at hNaV1.8; format: cell-based, human; conditions: 10 μM; 5 min incubation; QPatch-16; holding −90 mV, 50 ms pulse to +10 mV every 20 s; 0.1% BSA; mean ± SEM
Experimental: as §1
(§4) Whole-cell patch-clamp experiments in NaV1.7-HEK cells and NaV1.8-CHO cells were performed on a QPatch-16 automated electrophysiology platform (Sophion Bioscience, Ballerup, Denmark) as previously described. […]
as §3

hNaV1.7/β1 [3] = biological target: T2, hNaV1.7/β1; assay: Voltage dependence of activation at hNaV1.7 (conductance-voltage curves, patch-clamp); format: cell-based; conditions: 1 μM, 5 min incubation; holding −90 mV, 500 ms steps −110 to +55 mV in 5 mV increments; Boltzmann fit; n = 3–6 cells per data point
Experimental: as §1, §4, §3

T2 sequence (Q07699 19-218): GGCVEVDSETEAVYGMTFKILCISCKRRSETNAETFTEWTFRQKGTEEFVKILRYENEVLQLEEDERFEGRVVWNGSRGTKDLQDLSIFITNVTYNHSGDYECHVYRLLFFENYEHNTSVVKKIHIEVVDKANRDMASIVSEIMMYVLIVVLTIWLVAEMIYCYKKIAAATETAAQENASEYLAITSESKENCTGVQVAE
T2 sequence (Q15858 whole entry): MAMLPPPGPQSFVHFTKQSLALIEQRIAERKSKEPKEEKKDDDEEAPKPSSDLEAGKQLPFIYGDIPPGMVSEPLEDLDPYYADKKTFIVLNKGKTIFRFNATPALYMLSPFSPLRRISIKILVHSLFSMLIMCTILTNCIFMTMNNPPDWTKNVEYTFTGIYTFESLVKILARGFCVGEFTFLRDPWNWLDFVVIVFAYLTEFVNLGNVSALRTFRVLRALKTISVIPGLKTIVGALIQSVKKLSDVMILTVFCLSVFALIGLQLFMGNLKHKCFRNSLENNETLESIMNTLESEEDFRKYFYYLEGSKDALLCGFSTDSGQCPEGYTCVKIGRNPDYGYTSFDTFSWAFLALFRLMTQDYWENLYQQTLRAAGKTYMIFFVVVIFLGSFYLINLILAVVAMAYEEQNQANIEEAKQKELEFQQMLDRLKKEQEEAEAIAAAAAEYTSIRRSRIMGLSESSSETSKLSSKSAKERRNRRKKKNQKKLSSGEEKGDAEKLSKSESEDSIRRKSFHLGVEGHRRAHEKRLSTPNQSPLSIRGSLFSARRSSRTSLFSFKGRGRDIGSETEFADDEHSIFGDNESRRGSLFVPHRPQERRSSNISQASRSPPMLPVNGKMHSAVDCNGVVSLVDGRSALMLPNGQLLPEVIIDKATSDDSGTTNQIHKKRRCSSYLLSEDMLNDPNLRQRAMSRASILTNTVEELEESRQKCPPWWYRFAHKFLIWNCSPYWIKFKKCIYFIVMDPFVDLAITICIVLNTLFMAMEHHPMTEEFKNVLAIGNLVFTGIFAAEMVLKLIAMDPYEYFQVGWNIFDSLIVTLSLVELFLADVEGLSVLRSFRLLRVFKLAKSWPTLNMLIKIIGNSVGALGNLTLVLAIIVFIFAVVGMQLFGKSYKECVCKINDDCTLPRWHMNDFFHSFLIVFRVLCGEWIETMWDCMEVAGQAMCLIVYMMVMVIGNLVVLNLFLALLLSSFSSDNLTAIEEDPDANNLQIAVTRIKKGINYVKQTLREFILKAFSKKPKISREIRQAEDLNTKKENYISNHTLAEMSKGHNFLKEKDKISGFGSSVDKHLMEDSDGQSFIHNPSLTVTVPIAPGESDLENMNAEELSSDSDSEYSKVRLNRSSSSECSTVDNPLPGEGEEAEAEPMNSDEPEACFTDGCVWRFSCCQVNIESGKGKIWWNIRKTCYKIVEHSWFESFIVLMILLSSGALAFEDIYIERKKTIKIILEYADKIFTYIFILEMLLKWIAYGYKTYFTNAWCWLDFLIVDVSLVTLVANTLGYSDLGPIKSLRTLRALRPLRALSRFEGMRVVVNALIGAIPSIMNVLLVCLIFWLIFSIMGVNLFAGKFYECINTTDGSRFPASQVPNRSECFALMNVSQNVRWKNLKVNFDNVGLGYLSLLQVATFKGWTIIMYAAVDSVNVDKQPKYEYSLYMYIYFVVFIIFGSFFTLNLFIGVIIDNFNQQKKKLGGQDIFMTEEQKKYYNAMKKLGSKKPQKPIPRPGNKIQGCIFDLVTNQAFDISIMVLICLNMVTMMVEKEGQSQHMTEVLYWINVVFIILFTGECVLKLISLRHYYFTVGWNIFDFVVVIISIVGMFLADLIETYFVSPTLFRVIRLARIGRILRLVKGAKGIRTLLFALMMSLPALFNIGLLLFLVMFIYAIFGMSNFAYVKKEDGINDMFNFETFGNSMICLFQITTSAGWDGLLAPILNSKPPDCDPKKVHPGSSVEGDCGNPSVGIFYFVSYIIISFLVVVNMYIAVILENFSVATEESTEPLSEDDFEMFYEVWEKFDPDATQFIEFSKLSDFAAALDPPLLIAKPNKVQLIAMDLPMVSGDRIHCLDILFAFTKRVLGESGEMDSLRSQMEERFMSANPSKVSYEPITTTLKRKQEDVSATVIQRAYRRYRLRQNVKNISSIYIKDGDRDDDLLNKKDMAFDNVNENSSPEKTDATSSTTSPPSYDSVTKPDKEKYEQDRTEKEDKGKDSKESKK
T1 sequence (O35433 whole entry): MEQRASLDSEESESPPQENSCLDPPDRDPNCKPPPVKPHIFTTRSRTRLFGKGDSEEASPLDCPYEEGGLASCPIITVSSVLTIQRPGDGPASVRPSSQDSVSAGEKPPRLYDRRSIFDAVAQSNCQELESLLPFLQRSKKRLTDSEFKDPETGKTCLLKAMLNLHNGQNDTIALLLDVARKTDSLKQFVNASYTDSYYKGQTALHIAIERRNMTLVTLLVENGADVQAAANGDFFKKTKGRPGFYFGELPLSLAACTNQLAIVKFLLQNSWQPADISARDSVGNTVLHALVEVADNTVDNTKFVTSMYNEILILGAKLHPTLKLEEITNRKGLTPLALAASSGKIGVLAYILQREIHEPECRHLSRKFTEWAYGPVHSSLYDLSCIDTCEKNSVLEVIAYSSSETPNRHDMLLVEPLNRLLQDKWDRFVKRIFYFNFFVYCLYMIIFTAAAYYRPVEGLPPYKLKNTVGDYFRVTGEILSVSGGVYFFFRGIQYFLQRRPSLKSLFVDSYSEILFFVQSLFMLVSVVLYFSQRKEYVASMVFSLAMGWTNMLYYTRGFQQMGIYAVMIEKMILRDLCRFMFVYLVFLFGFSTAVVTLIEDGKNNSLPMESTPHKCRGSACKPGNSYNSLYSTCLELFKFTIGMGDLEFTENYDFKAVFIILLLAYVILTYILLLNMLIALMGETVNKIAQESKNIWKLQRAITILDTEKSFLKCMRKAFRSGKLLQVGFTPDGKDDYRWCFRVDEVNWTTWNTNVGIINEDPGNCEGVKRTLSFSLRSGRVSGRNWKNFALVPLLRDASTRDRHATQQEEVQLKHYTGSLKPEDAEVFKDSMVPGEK

| Structure (SMILES) | activity at TRPV1 (rTRPV1; rTRPV1-HEK293, data not shown, concentration not given) | EC50 (hNaV1.7/β1 [1]; 5 min incubation, τ from single exponential fit, read-out: estimated EC50 (delay of fast inactivation)) [µM] | effect on fast inactivation (hNaV1.7/β1 [1]) | EC50 (hNaV1.7/β1 [2]; abstract, QPatch-16, holding −90 mV, 50 ms pulse to −20 mV, read-out: EC50 as given in abstract: delays fast inactivation and inhibits NaV1.7 peak current) [µM] | pharmacology at NaV1.7 (activator / inhibitor) (hNaV1.7/β1 [2]; authors' summary in discussion) | inhibition of peak current at NaV1.8 (hNaV1.8/β3) [%] | activity on TRPV1 (rTRPV1; rTRPV1-HEK293, Calcium 4 dye, up to 30 μM, n = 3–5 wells per data point) | shift of V1/2 of voltage dependence of activation (Δ) (hNaV1.7/β1 [3]) | IC50 (hNaV1.7/β1 [2]; 5 min incubation per concentration, QPatch-16, holding −90 mV, 50 ms pulse to −20 mV every 20 s, 0.1% BSA, mean ± SEM, n = 3–6 cells per data point, read-out: IC50 (inhibition of NaV1.7 peak current)) [µM] |
| --- | --- | --- | --- | --- | --- | --- | --- | --- | --- |
| CSCC[C@@H]1NC(=O)[C@H](Cc2ccccc2)NC(=O)[C@H](CCCCN)NC(=O)[C@H]([C@@H](C)O)NC(=O)[C@@H](NC(=O)CN)CSSC[C@@H]2NC(=O)[C@@H]3CSSC[C@@H](C(=O)NCC(=O)N[C@@H](Cc4c[nH]c5ccccc45)C(=O)N[C@@H](CC(=O)O)C(=O)NCC(=O)N[C@H](C(=O)N[C@@H](Cc4ccccc4)C(N)=O)[C@@H](C)O)NC(=O)[C@H](Cc4c[nH]c5ccccc45)NC(=O)[C@H](CCCCN)NC(=O)[C@H](Cc4ccc(O)cc4)NC(=O)[C@H](CCCCN)NC(=O)[C@H](Cc4ccc(O)cc4)NC(=O)[C@H](CSSC[C@H](NC(=O)[C@H](CO)NC(=O)CNC1=O)C(=O)N[C@@H](CCCCN)C(=O)N[C@@H]([C@@H](C)O)C(=O)N[C@@H](CC(=O)O)C(=O)N[C@@H](C)C(=O)N[C@@H](CC(=O)O)C(=O)N3)NC(=O)[C@H](CCC(=O)O)NC(=O)[C@H](CC(C)C)NC(=O)[C@H](Cc1c[nH]cn1)NC(=O)[C@H](CCC(=O)O)NC2=O [Pme2a] (H-GCTKFMGSCKTDADCCEHLECYKYKWCGWDGTF-NH2; disulfide 2-16, 9-21, 15-27 (inferred); N-terminus assumed) | no activity | > 10 | concentration-dependently delaying-fast inactivation; also recorded: concentration-dependently increases the time constant of fast inactivation (τ) | > 10 | NaV1.7 channel activator | 22 ± 4 |  |  |  |
| CSCC[C@@H]1NC(=O)[C@H](CCCCN)NC(=O)[C@@H]2CSSC[C@@H]3NC(=O)CNC(=O)CNC(=O)[C@H](CC(C)C)NC(=O)[C@H](Cc4ccccc4)NC(=O)[C@H](Cc4ccc(O)cc4)NC(=O)[C@H](CCCNC(=N)N)NC(=O)[C@@H](NC(=O)CNC(=O)CN)CSSC[C@H](NC(=O)[C@H](CSSC[C@@H](C(=O)N[C@@H](C)C(=O)N[C@@H](Cc4c[nH]c5ccccc45)C(=O)N[C@@H](CC(=O)O)C(=O)NCC(=O)N[C@H](C(=O)N[C@@H](Cc4ccccc4)C(N)=O)[C@@H](C)O)NC(=O)[C@H](Cc4ccc(O)cc4)NC(=O)[C@H](CC(N)=O)NC(=O)[C@H](CC(C)C)NC(=O)CNC1=O)NC(=O)[C@H](CC(=O)O)NC(=O)[C@H](CO)NC(=O)[C@H](Cc1c[nH]cn1)NC(=O)[C@H](CCC(=O)O)NC(=O)[C@H](CO)NC3=O)C(=O)N[C@@H](CCC(=O)O)C(=O)N[C@@H](Cc1c[nH]cn1)C(=O)N[C@@H](CC(C)C)C(=O)N[C@@H](CCCNC(=N)N)C(=O)N2 [Pme1a] (H-GGCRYFLGGCSEHSDCCEHLRCKMGLNYCAWDGTF-NH2; disulfide 3-17, 10-22, 16-29 (inferred); N-terminus assumed) |  |  |  |  |  | 21 ± 2 | no activity | +11.6 mV | 0.334 ± 0.114 |
| CSCC[C@@H]1NC(=O)[C@H](Cc2ccccc2)NC(=O)[C@H](CCCCN)NC(=O)[C@H]([C@@H](C)O)NC(=O)[C@@H](NC(=O)CN)CSSC[C@@H]2NC(=O)[C@@H]3CSSC[C@@H](C(=O)NCC(=O)N[C@@H](Cc4c[nH]c5ccccc45)C(=O)N[C@@H](CC(=O)O)C(=O)NCC(=O)N[C@H](C(=O)N[C@@H](Cc4ccccc4)C(N)=O)[C@@H](C)O)NC(=O)[C@H](Cc4c[nH]c5ccccc45)NC(=O)[C@H](CCCCN)NC(=O)[C@H](Cc4ccc(O)cc4)NC(=O)[C@H](CCCCN)NC(=O)[C@H](Cc4ccc(O)cc4)NC(=O)[C@H](CCCCN)NC(=O)[C@H](CSSC[C@H](NC(=O)[C@H](CO)NC(=O)CNC1=O)C(=O)N[C@@H](CCCCN)C(=O)N[C@@H]([C@@H](C)O)C(=O)N[C@@H](CC(=O)O)C(=O)N[C@@H](C)C(=O)N[C@@H](CC(=O)O)C(=O)N3)NC(=O)[C@H](CCC(=O)O)NC(=O)[C@H](CC(C)C)NC(=O)[C@H](Cc1c[nH]cn1)NC(=O)[C@H](CCC(=O)O)NC2=O [[+22K]Pme2a] (H-GCTKFMGSCKTDADCCEHLECKYKYKWCGWDGTF-NH2; disulfide 2-16, 9-21, 15-28 (inferred); N-terminus assumed) |  |  | removed the effect of the native peptide on fast inactivation; also recorded: without the delay in fast activation seen with the native peptide |  |  |  |  |  |  |
